# Data reported in patent US10005768B2, “Carboxamide derivatives and use thereof” (Purdue Pharma L.P., priority 2013, dated 2018).
# Biological target: human Nav1.7 (Homo sapiens (Human), UniProt Q15858)
# Test: FLIPR sodium dye assay (CoroNa Green AM Na+ dye, primary fluorescence assay)
# Assay type: cell-based
# Settings: recombinant Nav1.7/HEK293 cells
# Method: In vitro assays were performed in a recombinant cell line expressing cDNA encoding the alpha subunit (Nav1.7, SCN9a, PN1, NE) of human Nav1.7 (Accession No. NM_002977). The cell line was provided by investigators at Yale University (Cummins et al, J. Neurosci. 18(23): 9607-9619 (1998)). For dominant selection of the Nav1.7-expressing clones, the expression plasmid co-expressed the neomycin resistance gene. The cell line was constructed in the human embryonic kidney cell line, HEK293, under the influence of the CMV […] promoter, and stable clones were selected using limiting dilution cloning and antibiotic selection using the neomycin analogue, G418. Recombinant beta and gamma subunits were not introduced into this cell line. Additional cell lines expressing recombinant Nav1.7 cloned from other species can also be used, alone or in combination with various beta subunits, gamma subunits or chaperones.
# Unless otherwise noted, cell culture reagents were purchased from Mediatech of Herndon, Va. The recombinant Nav1.7/HEK293 cells were routinely cultured in growth medium consisting of Dulbecco's […] essential medium containing 10% fetal bovine serum (FBS, Hyclone, Thermo Fisher Scientific, Logan, Utah), 100 U/mL penicillin, 100 μg/mL streptomycin, 2-4 mM L-glutamine, and […] G418. For natural, non-recombinant cell lines, the selective antibiotic was omitted, and additional media formulations can be applied as needed.
# The final buffer consisted of 20 mM Hepes, pH 7.3, 1.261 mM CaCl2, 0.493 mM MgCl2, 0.407 mM Mg(SO)4, 5.33 mM KCl, 0.441 mM KH2PO4, 137 mM NaCl, 0.336 mM Na2HPO4 and […] D-glucose (Hanks et al., Proc. Soc. Exp. Biol. Med. 71:196 (1949)), and the simple formulation was typically the basic buffer throughout the assay (i.e., all wash and addition steps).
# The fluorescence indicator used in the primary fluorescence assay was the cell permeant version of CoroNa™ Green (Invitrogen, Molecular Probes, Eugene, Oreg.), a dye that emits light in the fluorescence range (Harootunian et al., J. Biol. Chem. 264(32):19458-19467 (1989)). The intensity of this emission, but not the wavelength range, is increased when the dye is exposed to Na^+ ions, which it can bind with partial selectivity. Cells expressing Nav1.7 or other sodium channels were loaded with the CoroNa™ Green dye immediately in advance of the fluorescence assay, and then, after agonist stimulation, the mobilization of Na^+ ions was detected as the Na^+ ions flowed from the extracellular fluid into the cytoplasm through the activated sodium channel pores. The dye was stored in the dark as a lyophilized powder, and then an aliquot was dissolved immediately before the cell loading procedure, according to the instructions of the manufacturer, to a stock concentration of 10 mM in DMSO. It was then diluted in the assay buffer to a 4× concentrated working solution, so that the final concentration of dye in the cell loading buffer was 5 μM.
# In the fluorescence assays, two agonists were used in combination, namely 1) veratridine; and 2) the venom from the yellow scorpion, Leiurus quinquestriatus hebraeus. Veratridine is an alkaloid small molecule that facilitates the capture of channel openings by inhibiting inactivation, and the scorpion venom is a natural preparation that includes peptide toxins selective for different subsets of voltage-gated sodium channels. These scorpion toxins inhibit the fast inactivation of their cognate target channels. Stock solutions of the agonists were prepared to 40 mM in DMSO (veratridine) and 1 mg/mL in dH2O (scorpion venom), and then diluted to make a 4× or 2× stock (depending on the particular assay) in assay buffer, the final concentration being 100 μM (veratridine) and 10 μg/mL (scorpion venom). Both of the agonists were purchased from Sigma Aldrich, St. Louis, Mo.
# Test compounds were dissolved in DMSO to yield 10 mM stock solutions. […]
# Sequence of human Nav1.7 (Q15858 other isoform, or with tags, fused parts or gaps): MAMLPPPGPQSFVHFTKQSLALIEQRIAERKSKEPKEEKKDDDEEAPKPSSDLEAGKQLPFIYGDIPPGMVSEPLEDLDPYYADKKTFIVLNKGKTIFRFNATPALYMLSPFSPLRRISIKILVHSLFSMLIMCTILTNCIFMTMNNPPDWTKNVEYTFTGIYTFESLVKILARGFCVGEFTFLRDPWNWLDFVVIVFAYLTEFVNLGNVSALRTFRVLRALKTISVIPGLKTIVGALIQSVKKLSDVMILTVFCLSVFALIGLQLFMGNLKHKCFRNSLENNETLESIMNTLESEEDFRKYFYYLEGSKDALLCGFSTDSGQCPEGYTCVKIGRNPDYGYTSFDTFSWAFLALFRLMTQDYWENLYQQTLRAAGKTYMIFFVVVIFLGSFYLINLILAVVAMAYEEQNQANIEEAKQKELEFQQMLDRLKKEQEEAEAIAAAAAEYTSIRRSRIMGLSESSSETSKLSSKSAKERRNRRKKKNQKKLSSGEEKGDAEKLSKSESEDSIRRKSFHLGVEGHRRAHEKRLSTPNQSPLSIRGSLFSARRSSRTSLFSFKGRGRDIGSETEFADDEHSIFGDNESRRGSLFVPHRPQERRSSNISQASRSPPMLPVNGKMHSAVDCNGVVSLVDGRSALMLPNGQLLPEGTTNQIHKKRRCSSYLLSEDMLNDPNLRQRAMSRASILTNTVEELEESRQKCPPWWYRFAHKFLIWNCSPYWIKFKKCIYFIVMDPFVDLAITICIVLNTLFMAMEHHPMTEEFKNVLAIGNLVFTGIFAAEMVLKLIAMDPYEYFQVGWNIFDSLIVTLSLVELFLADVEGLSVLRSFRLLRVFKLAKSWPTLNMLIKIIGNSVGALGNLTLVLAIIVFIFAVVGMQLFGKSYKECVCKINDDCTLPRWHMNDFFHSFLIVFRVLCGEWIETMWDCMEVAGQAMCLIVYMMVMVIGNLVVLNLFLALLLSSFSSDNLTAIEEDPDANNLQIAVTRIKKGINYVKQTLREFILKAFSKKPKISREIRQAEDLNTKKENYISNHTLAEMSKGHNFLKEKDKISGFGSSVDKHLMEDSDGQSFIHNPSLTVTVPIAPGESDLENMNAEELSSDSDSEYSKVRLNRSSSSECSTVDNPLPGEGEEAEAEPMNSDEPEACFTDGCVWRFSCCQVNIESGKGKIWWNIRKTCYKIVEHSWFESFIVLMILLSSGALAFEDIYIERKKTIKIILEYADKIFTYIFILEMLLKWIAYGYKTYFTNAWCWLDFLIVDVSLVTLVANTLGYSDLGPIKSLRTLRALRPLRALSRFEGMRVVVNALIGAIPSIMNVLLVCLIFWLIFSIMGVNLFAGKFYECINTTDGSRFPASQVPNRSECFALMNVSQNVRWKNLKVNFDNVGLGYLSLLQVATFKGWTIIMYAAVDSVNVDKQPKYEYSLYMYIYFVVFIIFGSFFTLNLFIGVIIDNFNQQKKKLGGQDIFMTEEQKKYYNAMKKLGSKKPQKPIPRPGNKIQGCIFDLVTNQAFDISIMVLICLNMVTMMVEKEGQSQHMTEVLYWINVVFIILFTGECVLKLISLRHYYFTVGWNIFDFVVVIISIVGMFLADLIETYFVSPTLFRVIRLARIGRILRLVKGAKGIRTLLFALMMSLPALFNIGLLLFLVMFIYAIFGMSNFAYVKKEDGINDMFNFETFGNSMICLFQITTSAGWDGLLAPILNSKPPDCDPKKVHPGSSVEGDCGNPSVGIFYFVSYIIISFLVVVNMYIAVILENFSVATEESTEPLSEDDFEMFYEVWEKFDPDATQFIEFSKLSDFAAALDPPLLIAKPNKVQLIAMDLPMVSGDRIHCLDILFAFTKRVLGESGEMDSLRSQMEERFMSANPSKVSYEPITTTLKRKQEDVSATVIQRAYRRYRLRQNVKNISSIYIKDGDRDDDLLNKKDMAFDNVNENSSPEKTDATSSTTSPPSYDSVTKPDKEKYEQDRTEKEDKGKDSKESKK
row,IC50,Compound
1,0.174 ± 0.041 µM,"OC[C@@H](O)c1cccc(-c2ccc(Oc3ccc(C(F)(F)F)cc3CN3CCCCC3)cc2)n1 [compound 107, (S)-1-(6-(4-(2-(piperidin-1-ylmethyl)-4-(trifluoromethyl)phenoxy)phenyl)pyridin-2-yl)ethane-1,2-diol]"
2,> 20 µM,"CN(Cc1cc(-c2cccc(C(N)=O)n2)ccc1Oc1ccc(F)cc1)c1ccc(C(=O)O)cc1 [compound 93, 4-((5-(6-carbamoylpyridin-2-yl)-2-(4-fluorophenoxy)benzyl)-(methyl)amino)benzoic acid]"
3,> 20 µM,"NC(=O)c1cccc(-c2ccc(Oc3ccc(C(F)(F)F)cc3C(=O)N3CCNC(=O)C3)cc2)n1 [compound 165, 6-(4-(2-(3-oxopiperazine-1-carbonyl)-4-(trifluoromethyl)-phenoxy)phenyl)picolinamide]"
4,0.59 ± 0.092 µM,"CCN(CCO)Cc1cc(C(F)(F)F)ccc1Oc1ccc(-c2cccc(C(N)=O)n2)cc1 [compound 119, 6-(4-(2-((ethyl(2-hydroxyethyl)amino)methyl)-4-(trifluoromethyl)phenoxy)phenyl) picolinamide]"
5,0.49 ± 0.041 µM,"NC(=O)c1cccc(-c2ccc(Oc3ccc(F)cc3)cc2Cl)n1 [compound 86, 6-(2-chloro-4-(4-fluorophenoxy)-phenyl)picolinamide]"
6,0.426 ± 0.084 µM,"N#Cc1ccc(Oc2ccc(-c3cccc(C(N)=O)n3)cc2)c(-c2ccc(N)cc2)c1 [compound 18, 6-(4-((4′-amino-5-cyano-[1,1′-biphenyl]-2-yl)oxy)phenyl)-picolinamide]"
7,0.124 ± 0.016 µM,"COc1ccc(-c2cc(C#N)ccc2Oc2ccc(-c3cccc(C(N)=O)n3)cc2)cn1 [compound 20, 6-(4-(4-cyano-2-(6-methoxypyridin-3-yl)phenoxy)phenyl)picolinamide]"
8,> 20 µM,"NC(=O)c1cccc(-c2ccc(Oc3ccc(F)cc3)c(COc3ccc(Cl)cc3I)c2)n1 [compound 94, 6-(3-((4-chloro-2-iodophenoxy)methyl)-4-(4-fluorophenoxy)phenyl) picolinamide]"
9,0.221 ± 0.049 µM,"CN1CCN(Cc2cc(C(F)(F)F)ccc2Oc2ccc(-c3cccc(C(N)=O)n3)cc2)CC1 [compound 33, 6-(4-(2-((4-methylpiperazin-1-yl)methyl)-4-(trifluoromethyl)-phenoxy)phenyl)picolinamide]"
10,0.913 ± 0.016 µM,"CC(C)(C)OC(=O)N1CCC(NCc2cc(C(F)(F)F)ccc2Oc2ccc(-c3cccc(C(N)=O)n3)cc2)C1 (centres unmarked) [compound 48, tert-butyl 3-((2-(4-(6-carbamoylpyridin-2-yl)phenoxy)-5-(trifluoromethyl)benzyl)-amino)pyrrolidine-1-carboxylate]"
11,0.128 ± 0.03 µM,"NC(=O)c1cccc(-c2ccc(Oc3ccc(F)cc3)c(Cl)c2)n1 [compound 87, 6-(3-chloro-4-(4-fluorophenoxy)-phenyl)picolinamide]"
12,0.174 ± 0.018 µM,"NC(=O)c1cccc(-c2ccc(Oc3ccc(C(F)(F)F)c(CNCCC(F)(F)F)c3)cc2)n1 [compound 55, 6-(4-(4-(trifluoromethyl)-3-(((3,3,3-trifluoropropyl)amino)-methyl)phenoxy)phenyl)picolin-amide]"
13,0.455 ± 0.067 µM,"OC[C@H](O)c1ccnc(-c2ccc(Oc3ccc(C(F)(F)F)cc3CN3CCCC3)cc2)n1 [compound 115, (R)-1-(2-(4-(2-(pyrrolidin-1-ylmethyl)-4-(trifluoromethyl)phenoxy)phenyl)pyrimidin-4-yl)ethane-1,2-diol]"
14,2.85 ± 0.698 µM,"NC(=O)c1cccc(-c2ccc(Oc3ccc(C(F)(F)F)cc3C(=O)N3CCCC3)cc2)n1 [compound 160, 6-(4-(2-(pyrrolidine-1-carbonyl)-4-(trifluoromethyl)phenoxy)phenyl)picolinamide]"
15,0.312 ± 0.008 µM,"COCc1cc(-c2cccc(C(N)=O)n2)ccc1Oc1ccc(F)cc1 [compound 103, 6-(4-(4-fluorophenoxy)-3-(methoxymethyl)phenyl)picolin-amide]"
16,0.949 ± 0.168 µM,"CC(C)(C)OC(=O)NC1CCN(Cc2cc(C(F)(F)F)ccc2Oc2ccc(-c3cccc(C(N)=O)n3)cc2)C1 (centres unmarked) [compound 47, tert-butyl (1-(2-(4-(6-carbamoylpyridin-2-yl)phenoxy)-5-(trifluoromethyl)-benzyl)pyrrolidin-3-yl)carbamate]"
17,> 20 µM,N#Cc1cc(-c2cccc(C(N)=O)n2)ccc1Oc1ccc(F)cc1 [compound 89]
18,> 20 µM,"NC(=O)c1cccc(-c2ccc(Oc3ccc(C(F)(F)F)cc3C(C(=O)N3CCCC3)N3CCNC(=O)C3)cc2)n1 (centres unmarked) [compound 112, 6-(4-(2-(2-oxo-1-(3-oxopiperazin-1-yl)-2-(pyrrolidin-1-yl)ethyl)-4-(trifluoromethyl)phenoxy)phenyl) picolinamide]"
19,0.578 ± 0.098 µM,"CCN(CCN(C)C)Cc1cc(C(F)(F)F)ccc1Oc1ccc(-c2cccc(C(N)=O)n2)cc1 [compound 120, 6-(4-(2-(((2-(dimethylamino)ethyl)(ethyl)amino)methyl)-4-(trifluoromethyl)phenoxy)phenyl) picolinamide]"
20,1.69 ± 0.157 µM,"CN(C)CCCNCc1cc(C(F)(F)F)ccc1Oc1ccc(-c2cccc(C(N)=O)n2)cc1 [compound 38, 6-(4-(2-(((3-(dimethylamino)-propyl)amino)methyl)-4-(trifluoromethyl)phenoxy)phenyl) picolinamide]"
21,1.26 ± 0.135 µM,"NC(=O)c1cccc(-c2ccc(Oc3ccc(C(F)(F)F)cc3C(=O)O)cc2)n1 [compound 159, 2-(4-(6-carbamoylpyridin-2-yl)phenoxy)-5-(trifluoro-methyl)benzoic acid]"
22,0.067 ± 0.019 µM,"Cn1cccc1-c1cc(C#N)ccc1Oc1ccc(-c2cccc(C(N)=O)n2)cc1 [compound 17, 6-(4-(4-cyano-2-(1-methyl-1H-pyrrol-2-yl)phenoxy)phenyl)-picolinamide]"
23,0.362 ± 0.095 µM,"N#Cc1ccc(OCc2cc(-c3cccc(C(N)=O)n3)ccc2Oc2ccc(F)cc2)cc1 [compound 105, 6-(3-((4-cyanophenoxy)methyl)-4-(4-fluorophenoxy)phenyl)picolinamide]"
24,> 20 µM,"NC(=O)c1cccc(-c2ccc(Oc3ccc(F)cc3)c(COc3ccc(F)cc3)c2)n1 [compound 104, 6-(4-(4-fluorophenoxy)-3-((4-fluorophenoxy)methyl)phenyl) picolinamide]"
25,0.672 ± 0.059 µM,"O=C1CN(Cc2cc(C(F)(F)F)ccc2Oc2ccc(-c3cccc([C@H](O)CO)n3)cc2)CCN1 [compound 74, (S)-4-(2-(4-(6-(1,2-dihydroxyethyl)pyridin-2-yl)phenoxy)-5-(trifluoro-methyl)benzyl)piperazin-2-one]"
26,0.564 ± 0.035 µM,"Cn1cc(-c2cc(C#N)ccc2Oc2ccc(-c3cccc(C(N)=O)n3)cc2)cn1 [compound 21, 6-(4-(4-cyano-2-(1-methyl-1H-pyrazol-4-yl)phenoxy)phenyl)-picolinamide]"
27,0.561 ± 0.024 µM,"CCN(CC)C(C(N)=O)c1cc(C(F)(F)F)ccc1Oc1ccc(-c2cccc(C(N)=O)n2)cc1 (centres unmarked) [compound 85, 6-(4-(2-(2-amino-1-(diethylamino)-2-oxoethyl)-4-(trifluoromethyl)phenoxy)phenyl) picolinamide]"
28,1.3 ± 0.126 µM,"CN(Cc1cc(-c2cccc(C(N)=O)n2)ccc1Oc1ccc(F)cc1)c1ccccc1 [compound 102, 6-(4-(4-fluorophenoxy)-3-((methyl(phenyl)amino)methyl)phenyl)picolinamide]"
29,1.29 ± 0.182 µM,"OC[C@@H](O)c1cccc(-c2ccc(Oc3ccc(F)cc3C(O)C(F)(F)F)cc2)n1 (stereo partly drawn) [compound 156, (1S)-1-(6-(4-(4-fluoro-2-(2,2,2-trifluoro-1-hydroxyethyl)-phenoxy)phenyl)pyridin-2-yl)ethane-1,2-diol]"
